System: B16F0 melanoma tumour
Assay: Biodistribution in B16 melanoma bearing mice
Assay type: in vivo, C57BL/6J mice
Conditions: C57BL/6J mice; for Organ distribution Intestine / Organ distribution Liver / Organ distribution Spleen / Organ distribution Stomach / Organ distribution Thyroid / Organ distribution Tumour: B16F0 tumour, mean ± S.D.; for Organ distribution Intestine / Organ distribution Liver / Organ distribution Spleen / Organ distribution Stomach / Organ distribution Thyroid / Organ distribution Tumour / Uptake Lung / uptake BLOOD / uptake BRAIN / uptake HEART / uptake KIDNEY / uptake LIVER / uptake TUMOUR: n = 5; for tumour standardized uptake value (SUVt) / Uptake Lung / uptake BLOOD / uptake BRAIN / uptake HEART / uptake KIDNEY / uptake LIVER / uptake TUMOUR: B16 tumour; for Uptake Lung / uptake BLOOD / uptake BRAIN / uptake HEART / uptake KIDNEY / uptake LIVER / uptake TUMOUR: mean ± SD
Experimental: Animal experiments were performed in compliance with the NHMRC Australian Code of Practice for the care and use of animals for scientific purposes. Female C57BL/6J black and BALB/c nude albino mice of 5 weeks age were obtained from the Animal Resources Centre, Western Australia. B16F0 murine melanoma cells were originally obtained from European Collection of Cell Cultures (UK) and A375 human amelanotic melanoma cells were originally obtained from American Type Culture Collection (USA). Before transplantation, B16F0 and A375 melanoma cells were maintained as a monolayer in RPMI culture medium supplemented with 10% foetal calf serum and antibiotics and passaged with trypsinisation. Early passages were frozen and stored in liquid nitrogen. Cells were passaged to P=10 and then discarded. Frozen aliquots were grown in a monolayer culture to between 80-95% confluence and for transplantation were trypsinised and washed with Ca^2+ and Mg^2+ free phosphate buffered saline (PBS). For inoculation, B16F0 melanoma cells were resuspended in Ca^2+ and Mg^2+ free PBS at 3 or 5×10^6 viable cells per ml and 0.1 ml was subcutaneously injected at the left flank of 6-7 weeks old C57BL/6J mice. Eleven days later, tumours could be palpated in >98% of inoculated animals. A375 human melanoma cells were resuspended at 1×10^7 viablecells per ml and 0.1 ml was injected subcutaneously at the left flank of 6 weeks old BALB/c nude mice and 25-26 days later tumours could be palpated with ˜60% of inoculated animals developing tumours.
Eleven days (B16F0 melanoma) and 25 days (A375 human melanoma) after tumour transplantation, the [^18F]nicotinamides (0.5-1.5 MBq, 100 μl) and [^123I]nicotinamide (0.37-0.74 MBq, 100 μl) derivatives were injected intravenously via the tail vein into mice (15-18 g). Time points of 1, 3, 6, 24, 48, 72 h after injection were chosen for determining the distribution of each compound in various organs and tissues for the iodine-123 labelled compounds and between 15 min and 6 hours (e.g. 15 min, 30 min, 1 h, 2 h, 4 h or 6 h) were chosen for the ^18F-labelled compounds. At defined times post injection, groups of mice (n=5) were weighed, sacrificed by CO2 administration followed by cervical dislocation and dissected. Selected organs were weighed and their radioactivity measured with a γ-counter. The remaining activity in the carcass was also determined in order to obtain the total activity in the mouse at defined time points. The fraction of injected activity (% ID) in the organ was calculated by comparison with suitable dilutions of the injected dose. Then, the radioactivity concentration in the organ (% ID/g) was found by dividing the % ID for each organ by the weight of the organ.

Compound: CCN(CC)CCNC(=O)c1ccc(I)nc1 [[^123I]14, N-(2-(Diethylamino)ethyl)-6-iodonicotinamide]
- Organ distribution Intestine (1 h): 10 ± 1 % ID/organ
- Organ distribution Liver (1 h): 2.7 ± 0.7 % ID/organ
- Organ distribution Spleen (1 h): 0.31 ± 0.07 % ID/organ
- Organ distribution Stomach (1 h): 9 ± 1 % ID/organ
- Organ distribution Thyroid (1 h): 1.2 ± 0.7 % ID/organ
- Organ distribution Tumour (1 h): 1.8 ± 0.4 % ID/organ
- Organ distribution Intestine (6 h): 5 ± 1 % ID/organ
- Organ distribution Liver (6 h): 1.3 ± 0.4 % ID/organ
- Organ distribution Spleen (6 h): 0.17 ± 0.05 % ID/organ
- Organ distribution Stomach (6 h): 7 ± 2 % ID/organ
- Organ distribution Thyroid (6 h): 3.3 ± 0.8 % ID/organ
- Organ distribution Tumour (6 h): 1.4 ± 0.8 % ID/organ
- Organ distribution Intestine (24 h): 0.35 ± 0.03 % ID/organ
- Organ distribution Liver (24 h): 0.19 ± 0.04 % ID/organ
- Organ distribution Spleen (24 h): 0.01 ± 0.00 % ID/organ
- Organ distribution Stomach (24 h): 0.4 ± 0.1 % ID/organ
- Organ distribution Thyroid (24 h): 6.5 ± 2.8 % ID/organ
- Organ distribution Tumour (24 h): 0.11 ± 0.06 % ID/organ
- tumour standardized uptake value (SUVt) (1 h): 1.2 ± 0.1
- Uptake Lung (1 h): 4.8 ± 0.4 % ID/g
- uptake BLOOD (1 h): 6.9 ± 0.6 % ID/g
- uptake BRAIN (1 h): 0.36 ± 0.05 % ID/g
- uptake HEART (1 h): 2.3 ± 0.2 % ID/g
- uptake KIDNEY (1 h): 4.2 ± 0.6 % ID/g
- uptake LIVER (1 h): 3.1 ± 0.6 % ID/g
- uptake TUMOUR (1 h): 3.8 ± 0.2 % ID/g
- tumour standardized uptake value (SUVt) (6 h): 1.0 ± 0.1
- Uptake Lung (6 h): 2.6 ± 0.8 % ID/g
- uptake BLOOD (6 h): 3.6 ± 1.0 % ID/g
- uptake BRAIN (6 h): 0.14 ± 0.04 % ID/g
- uptake HEART (6 h): 1.1 ± 0.3 % ID/g
- uptake KIDNEY (6 h): 2.4 ± 0.7 % ID/g
- uptake LIVER (6 h): 1.4 ± 0.5 % ID/g
- uptake TUMOUR (6 h): 2.3 ± 0.5 % ID/g
- tumour standardized uptake value (SUVt) (24 h): 0.5 ± 0.2
- Uptake Lung (24 h): 0.2 ± 0.1 % ID/g
- uptake BLOOD (24 h): 0.25 ± 0.12 % ID/g
- uptake BRAIN (24 h): 0.02 % ID/g
- uptake HEART (24 h): 0.10 ± 0.05 % ID/g
- uptake KIDNEY (24 h): 0.18 ± 0.05 % ID/g
- uptake LIVER (24 h): 0.20 ± 0.04 % ID/g
- uptake TUMOUR (24 h): 0.26 ± 0.14 % ID/g
